Data on 19 molecules can be found in ChEMBL document CHEMBL1136019, “Structure-based optimisation of 2-aminobenzylstatine derivatives: potent and selective inhibitors of the chymotrypsin-like activity of the human 20S proteasome” (Bioorg Med Chem Lett, 2002).

A value given as a limit tells only on which side of the number the result lay.

In this assay the target is 20S proteasome. Description: Tested in vitro for inhibition of chymotrypsin like activity of purified human 20S proteasome. It is filed as subcellular.
Broadly, the IC50 is the midpoint of a concentration-inhibition curve. Lower therefore signals higher potency. Take `COc1ccc(CNC(=O)[C@@H](NC(=O)[C@H](NCc2ccc(N(C)C)cc2)[C@H](O)[C@H](Cc2ccccc2)NC(=O)[C@@H](NC(=O)OCc2ccccc2)C(C)(C)C)C(C)C)c(O)c1`: 600 nM corresponded to half-maximal inhibition (IC50).
Consider `COc1ccc(CNC(=O)[C@@H](NC(=O)[C@H](NCc2ccc(-c3ccccc3)cc2)[C@H](O)[C@H](Cc2ccccc2)NC(=O)[C@@H](NC(=O)OCc2ccccc2)C(C)(C)C)C(C)C)c(O)c1`, for which the IC50 is above 20000 nM.
On to `COc1ccc(CNC(=O)[C@@H](NC(=O)[C@H](NCc2ccc(N(C)C)cc2)[C@H](O)[C@H](Cc2ccccc2)NC(=O)[C@@H](NC(=O)Cc2cccc3ccccc23)C(C)(C)C)C(C)C)c(O)c1`, for which the IC50 is 160 nM.
Turning to `COc1ccc(CNC(=O)[C@@H](NC(=O)[C@H](NCc2ccc(OC)c(OC)c2OC)[C@H](O)[C@H](Cc2ccccc2)NC(=O)[C@@H](NC(=O)OCc2ccccc2)C(C)(C)C)C(C)C)c(O)c1`, the half-inhibitory concentration (IC50) is 100 nM.
With `COc1ccc(CNC(=O)[C@@H](NC(=O)[C@H](NCc2ccccc2OC)[C@H](O)[C@H](Cc2ccccc2)NC(=O)[C@@H](NC(=O)OCc2ccccc2)C(C)(C)C)C(C)C)c(O)c1` the figure was above 20000 nM; with `COc1ccc(CN[C@@H](C(=O)N[C@H](C(=O)NCc2ccc(OC)cc2O)C(C)C)[C@H](O)[C@H](Cc2ccccc2)NC(=O)[C@@H](NC(=O)OCc2ccccc2)C(C)(C)C)cc1`, 900 nM.
The result for `COc1cccc(CN[C@@H](C(=O)N[C@H](C(=O)NCc2ccc(OC)cc2O)C(C)C)[C@H](O)[C@H](Cc2ccccc2)NC(=O)[C@@H](NC(=O)OCc2ccccc2)C(C)(C)C)c1` reads 1500 nM.
Regarding `COc1ccc(CNC(=O)[C@@H](NC(=O)[C@H](NCc2cc(OC)c(OC)cc2OC)[C@H](O)[C@H](Cc2ccccc2)NC(=O)[C@@H](NC(=O)OCc2ccccc2)C(C)(C)C)C(C)C)c(O)c1`, the IC50 was found to be 200 nM.
The result for `COc1ccc(CNC(=O)[C@@H](NC(=O)[C@H](NCc2ccc(OC)cc2OC)[C@H](O)[C@H](Cc2ccccc2)NC(=O)[C@@H](NC(=O)OCc2ccccc2)C(C)(C)C)C(C)C)c(O)c1` reads 1600 nM; that for `COc1ccc(CN[C@@H](C(=O)N[C@H](C(=O)NCc2ccc(OC)cc2O)C(C)C)[C@H](O)[C@H](Cc2ccccc2)NC(=O)[C@@H](NC(=O)Cc2cccc3ccccc23)C(C)(C)C)cc1`, 100 nM; that for `COc1ccc(CNC(=O)[C@@H](NC(=O)[C@H](NCc2ccc(Oc3ccccc3)cc2)[C@H](O)[C@H](Cc2ccccc2)NC(=O)[C@@H](NC(=O)OCc2ccccc2)C(C)(C)C)C(C)C)c(O)c1`, above 20000 nM.
With `COc1cc(CN[C@@H](C(=O)N[C@H](C(=O)NCc2ccc(OC)cc2O)C(C)C)[C@H](O)[C@H](Cc2ccccc2)NC(=O)[C@@H](NC(=O)OCc2ccccc2)C(C)(C)C)cc(OC)c1`, the 50% inhibitory concentration (IC50) amounted to 190 nM.
With `COc1ccc(CNC(=O)[C@@H](NC(=O)[C@H](NCc2cc(OC)c(OC)c(OC)c2)[C@H](O)[C@H](Cc2ccccc2)NC(=O)[C@@H](NC(=O)OCc2ccccc2)C(C)(C)C)C(C)C)c(O)c1` the figure was 50 nM; with `COc1ccc(CNC(=O)[C@@H](NC(=O)[C@H](NCc2ccc(OC)c(OC)c2OC)[C@H](O)[C@H](Cc2ccccc2)NC(=O)[C@@H](NC(=O)Cc2cccc3ccccc23)C(C)(C)C)C(C)C)c(O)c1`, 18 nM.
In turn, `COc1ccc(CNC(=O)[C@@H](NC(=O)[C@H](NCc2cc(OC)c(OC)c(OC)c2)[C@H](O)[C@H](Cc2ccccc2)NC(=O)[C@@H](NC(=O)Cc2cccc3ccccc23)C(C)(C)C)C(C)C)c(O)c1` came in with an IC50 of 7 nM.
The molecule `COc1ccc(CNC(=O)[C@@H](NC(=O)[C@H](NCc2ccccc2)[C@H](O)[C@H](Cc2ccccc2)NC(=O)[C@@H](NC(=O)OCc2ccccc2)C(C)(C)C)C(C)C)c(O)c1` registered a half-maximal inhibitory concentration (IC50) above 20000 nM.
`COc1ccc(CNC(=O)[C@@H](NC(=O)[C@H](NCc2ccc(OC)c(OC)c2)[C@H](O)[C@H](Cc2ccccc2)NC(=O)[C@@H](NC(=O)OCc2ccccc2)C(C)(C)C)C(C)C)c(O)c1` came in with an IC50 of 150 nM.
Regarding `COc1ccc(CNC(=O)[C@@H](NC(=O)[C@H](NCc2cc(OC)c(OC)cc2OC)[C@H](O)[C@H](Cc2ccccc2)NC(=O)[C@@H](NC(=O)Cc2cccc3ccccc23)C(C)(C)C)C(C)C)c(O)c1`, half-maximal inhibition (IC50) required 29 nM.
With `COc1ccc(CNC(=O)[C@@H](NC(=O)[C@H](NCc2ccc(C(C)C)cc2)[C@H](O)[C@H](Cc2ccccc2)NC(=O)[C@@H](NC(=O)OCc2ccccc2)C(C)(C)C)C(C)C)c(O)c1`, the concentration for half-maximal inhibition (IC50) worked out at 1600 nM.
